In US20110251143A1, “STABLE ELSAMITRUCIN SALT FORMULATIONS” (Spectrum Pharmaceuticals, Inc., priority 2007, published 2011):

Experiments:
[1] = patients with refractory/relapsed non-Hodgkin's lymphoma; cited from earlier work
ER− tumors = settings: clinical specimens; cited from earlier work
[2] = tested on: B16F10 murine melanoma cells; test: MTT cell growth inhibition, B16F10; type: cell-based; settings: Mus musculus, B16-F10, 5-10 days
Protocol: (§1) The following experiment confirms that the elsamitrucin salts made in accordance with the teachings of the present disclosure retain their in vitro anti-neoplastic activity when compared to elsamitrucin base. Elsamitrucin and elsamitrucin tosylate were tested in vitro using: B16F10 (murine […]), HCT 116 (human colon), HT29 (human colon) and SK-MES-1 (human non-small cell lung carcinoma). Cell growth inhibition was evaluated in 96-well micro-culture plates with a semi-automated MTT (3-(4,5-dimethylthiazol-2-yl)-2,5-diphenyltetrazolium bromide) assay. […]
(§2) Cell culture plates seeded with test cells and various concentrations of elsamitrucin solutions were placed in a humidified incubator at 37° C., with CO2 and 95% air for 5-10 days. […] Absorbance was monitored at a wavelength of 595 nm, and at a reference wavelength of 650 nm, using a TECAN® GENios mocroplate reader. In all experiments, absorbance data was acquired for each agent at two overlapping concentration ranges. […]
(§3) The results of each test were stored and imported into PRISM® 3.03 for graphical analysis and determination of IC50 values. All results were graphed as a percentage of controlled absorbance versus the drug concentration. […]

ER+ tumors = settings: clinical specimens; cited from earlier work
MDA-MB-231 = settings: ER− MDA-MB-231 cell line; cited from earlier work
[3] = stability study of Elsamitrucin F2 RTU, impurities profile by HPLC;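 also: formulation kept in nitrogen-flushed sealed amber vials, sampled at time points, diluted to roughly 0.1 mg/mL and analysed by gradient HPLC on a C18 column, water/acetonitrile with trifluoroacetic acid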
Protocol: Design of the Stability Study: 250 mL of Elsamitrucin Tosylate stock solution (10 mg/mL free base, 4.77% Mannitol, pH 4.0) was prepared. 80×5 mL amber serum vials were filled with 2.5 mL of the Elsamitrucin Tosylate stock solution, flushed with nitrogen and sealed with stoppers. These sealed vials, in both upright and inverted positions, were stored in the following temperature cabinets at 4, 25, 40 and 60° C., respectively. […] Samples were removed for pH measurement and high performance liquid chromatography (HPLC) analysis at the various time points. At 60° C., measurements were made at 0, 2, 7, 10, 14 days. At 40° C., measurements were made at 0, 7, 14, 28, 38, 64, 77, 84 days. At 25° C., measurements were made at 0, 7, 14, 28, 64, 84 days. At 4° C., measures were made at 0, 7, 14, 28, 64, 84 days.
For the present stability study HPLC weight/weight assay of elsamitrucin was done in addition to the determination of related impurities. The reagents for the HPLC assay are as follows—HPLC grade acetonitrile and trifluoroacetic acid (Lot #44093418) were obtained from EMD Science. Water was purified with Millipore Milli-Q system. The apparatus was the chromatographic system which consisted of a Waters Alliance 2695 separation module equipped with a column heater, an autosampler and a Waters 2996 photodiode array detector. Data acquisition was controlled by Waters Empower Pro 2 software. As the column a Cadenza Cd-C18, 3 μm, 4.6×150 mm (Silverstone Sciences) was used. Detection was made at 267 nm. Mobile phase A contained water with 0.1% trifluoroacetic acid. 2 mL of trifluoroacetic acid was pipetted to 2000 mL of water. Mobile phase B contained acetonitrile with 0.08% trifluoroacetic acid. 1 mL of trifluoroacetic acid was pipetted to 1250 mL of acetonitrile. 1 L of water was mixed thoroughly with 1 L of acetonitrile.
HPLC analysis was run with a gradient at flow rate equal to 1.0 mL/min. The oven temperature was set at 40° C. The autosampler temperature was at 25° C. The injection volume was 10 μL. Sample Diluent—Acetonitrile/water (50/50, v/v): 1 L of water was mixed thoroughly with 1 L of acetonitrile. Sample Blank—Acetonitrile/water (50/50, v/v): Sample Diluent was used as Sample Blank. Standard Solution—˜0.1 mg/mL of Elsamitrucin: 26.32 mg of Elsamitrucin Tosylate was accurately weighed and dissolved in a 200 mL of Sample Diluent in a 200 mL volumetric flask. Sample Solution Preparation (one vial per time point): 2 mL of Elsamitrucin RTU solution was pipetted to a 20 mL volumetric flask and diluted with 18 mL of Sample Diluent. 2 mL of the diluted solution was further diluted with 18 mL of Sample Diluent in a 20 mL volumetric flask to give the final analytical sample (with concentration at about 0.1 mg/mL). The retention time for Elsamitrucin was about 11.7 minutes.

MCF7 = settings: ER+ MCF7 cell line; cited from earlier work
[4] = tested on: HCT 116 human colon carcinoma; test: MTT cell growth inhibition, HCT 116; type: cell-based; settings: Homo sapiens; HCT 116, MTT, 5-10 days
Protocol: as §1, §2, §3

MCF7DX = MCF7DX subline; cited from earlier work
[5] = tested on: SK-MES-1 human non-small cell lung carcinoma; test: MTT cell growth inhibition, SK-MES-1; type: cell-based; settings: Homo sapiens; SK-MES-1, MTT, 5-10 days
Protocol: as §1, §2, §3

[6] = tested on: HT29 human colon carcinoma; test: MTT cell growth inhibition, HT29; type: cell-based; settings: Homo sapiens, HT-29, 5-10 days
Protocol: as §1, §2, §3

CO[C@H]1[C@@H](O)[C@@H](C)OC(O[C@H]2[C@H](Oc3cccc4c(O)c5c(=O)oc6ccc(C)c7c(=O)oc(c34)c5c67)O[C@H](C)[C@H](O)[C@]2(C)O)[C@@H]1N (stereo partly drawn) [Elsamitrucin, benzo(h)(1)benzopyrano(5,4,3-cde)(1)ebnzopyran-5,12-dione,10((2-O-(2-amino-2,6-dideoxy-3-O-methyl-alpha-D-galactopyranosyl)-6-deoxy-3-C-methyl-beta-D-galactopyranosyl)oxy)-6-hydroxy-1-methyl]
elsamtrucin-associated toxicity [1]: relatively mild
minimal inhibiting concentrations (ER− tumors): 3.5 micrograms/ml
IC50 [2]: 24 nM
minimal inhibiting concentrations (ER+ tumors): 0.1 micrograms/ml
IC50 antiproliferative effect (MDA-MB-231): 0.21 micrograms/ml
Area Percent of HPLC peak ([3]; 10 mg/mL ELSA RTU Formulation 2, inverted, 5° C., Day 7): 97.89 Area Percent
Area Percent of HPLC peak ([3]; 10 mg/mL ELSA RTU Formulation 2, inverted, 5° C., Day 14): 97.70 Area Percent
Area Percent of HPLC peak ([3]; 10 mg/mL ELSA RTU Formulation 2, inverted, 5° C., Day 28): 98.41 Area Percent
Area Percent of HPLC peak ([3]; 10 mg/mL ELSA RTU Formulation 2, inverted, 5° C., Day 64): 97.54 Area Percent
Area Percent of HPLC peak ([3]; 10 mg/mL ELSA RTU Formulation 2, inverted, 5° C., Day 84): 98.15 Area Percent
Area Percent of HPLC peak ([3]; 10 mg/mL ELSA RTU Formulation 2, inverted, 5° C., Initial): 97.63 Area Percent
Area Percent of HPLC peak ([3]; 10 mg/mL ELSA RTU Formulation 2, inverted, 25° C., Day 7): 97.71 Area Percent
Area Percent of HPLC peak ([3]; 10 mg/mL ELSA RTU Formulation 2, inverted, 25° C., Day 14): 97.73 Area Percent
Area Percent of HPLC peak ([3]; 10 mg/mL ELSA RTU Formulation 2, inverted, 25° C., Day 28): 98.37 Area Percent
Area Percent of HPLC peak ([3]; 10 mg/mL ELSA RTU Formulation 2, inverted, 25° C., Day 64): 97.42 Area Percent
Area Percent of HPLC peak ([3]; 10 mg/mL ELSA RTU Formulation 2, inverted, 25° C., Day 84): 97.28 Area Percent
Area Percent of HPLC peak ([3]; 10 mg/mL ELSA RTU Formulation 2, inverted, 25° C., Initial): 97.63 Area Percent
Area Percent of HPLC peak ([3]; 10 mg/mL ELSA RTU Formulation 2, inverted, 40° C., Day 7): 97.75 Area Percent
Area Percent of HPLC peak ([3]; 10 mg/mL ELSA RTU Formulation 2, inverted, 40° C., Day 14): 97.64 Area Percent
Area Percent of HPLC peak ([3]; 10 mg/mL ELSA RTU Formulation 2, inverted, 40° C., Day 28): 97.70 Area Percent
Area Percent of HPLC peak ([3]; 10 mg/mL ELSA RTU Formulation 2, inverted, 40° C., Day 38): 98.04 Area Percent
Area Percent of HPLC peak ([3]; 10 mg/mL ELSA RTU Formulation 2, inverted, 40° C., Day 64): 97.04 Area Percent
Area Percent of HPLC peak ([3]; 10 mg/mL ELSA RTU Formulation 2, inverted, 40° C., Day 77): 96.84 Area Percent
Area Percent of HPLC peak ([3]; 10 mg/mL ELSA RTU Formulation 2, inverted, 40° C., Day 84): 96.64 Area Percent
Area Percent of HPLC peak ([3]; 10 mg/mL ELSA RTU Formulation 2, inverted, 40° C., Initial): 97.63 Area Percent
Area Percent of HPLC peak ([3]; 10 mg/mL ELSA RTU Formulation 2, inverted, 60° C., Day 2): 97.73 Area Percent
Area Percent of HPLC peak ([3]; 10 mg/mL ELSA RTU Formulation 2, inverted, 60° C., Day 7): 96.86 Area Percent
Area Percent of HPLC peak ([3]; 10 mg/mL ELSA RTU Formulation 2, inverted, 60° C., Day 10): 96.82 Area Percent
Area Percent of HPLC peak ([3]; 10 mg/mL ELSA RTU Formulation 2, inverted, 60° C., Day 14): 96.03 Area Percent
Area Percent of HPLC peak ([3]; 10 mg/mL ELSA RTU Formulation 2, inverted, 60° C., Initial): 97.63 Area Percent
Area Percent of HPLC peak ([3]; 10 mg/mL ELSA RTU Formulation 2, upright, 5° C., Day 7): 97.86 Area Percent
Area Percent of HPLC peak ([3]; 10 mg/mL ELSA RTU Formulation 2, upright, 5° C., Day 14): 97.63 Area Percent
Area Percent of HPLC peak ([3]; 10 mg/mL ELSA RTU Formulation 2, upright, 5° C., Day 28): 97.63 Area Percent
Area Percent of HPLC peak ([3]; 10 mg/mL ELSA RTU Formulation 2, upright, 5° C., Day 64): 97.39 Area Percent
Area Percent of HPLC peak ([3]; 10 mg/mL ELSA RTU Formulation 2, upright, 5° C., Day 84): 97.33 Area Percent
Area Percent of HPLC peak ([3]; 10 mg/mL ELSA RTU Formulation 2, upright, 5° C., Initial): 97.63 Area Percent
Area Percent of HPLC peak ([3]; 10 mg/mL ELSA RTU Formulation 2, upright, 40° C., Day 7): 97.77 Area Percent
Area Percent of HPLC peak ([3]; 10 mg/mL ELSA RTU Formulation 2, upright, 40° C., Day 14): 97.71 Area Percent
Area Percent of HPLC peak ([3]; 10 mg/mL ELSA RTU Formulation 2, upright, 40° C., Day 28): 97.62 Area Percent
Area Percent of HPLC peak ([3]; 10 mg/mL ELSA RTU Formulation 2, upright, 40° C., Day 38): 97.76 Area Percent
Area Percent of HPLC peak ([3]; 10 mg/mL ELSA RTU Formulation 2, upright, 40° C., Day 64): 96.86 Area Percent
Area Percent of HPLC peak ([3]; 10 mg/mL ELSA RTU Formulation 2, upright, 40° C., Day 77): 96.80 Area Percent
Area Percent of HPLC peak ([3]; 10 mg/mL ELSA RTU Formulation 2, upright, 40° C., Day 84): 97.31 Area Percent
Area Percent of HPLC peak ([3]; 10 mg/mL ELSA RTU Formulation 2, upright, 40° C., Initial): 97.63 Area Percent
Area Percent of HPLC peak ([3]; 10 mg/mL ELSA RTU Formulation 12, upright, 25° C., Day 7): 97.86 Area Percent
Area Percent of HPLC peak ([3]; 10 mg/mL ELSA RTU Formulation 12, upright, 25° C., Day 14): 97.67 Area Percent
Area Percent of HPLC peak ([3]; 10 mg/mL ELSA RTU Formulation 12, upright, 25° C., Day 28): 98.32 Area Percent
Area Percent of HPLC peak ([3]; 10 mg/mL ELSA RTU Formulation 12, upright, 25° C., Day 64): 97.68 Area Percent
Area Percent of HPLC peak ([3]; 10 mg/mL ELSA RTU Formulation 12, upright, 25° C., Day 84): 98.08 Area Percent
Area Percent of HPLC peak ([3]; 10 mg/mL ELSA RTU Formulation 12, upright, 25° C., Initial): 97.63 Area Percent
Area Percent of HPLC peak ([3]; 10 mg/mL ELSA RTU Formulation 12, upright, 60° C., Day 2): 97.83 Area Percent
Area Percent of HPLC peak ([3]; 10 mg/mL ELSA RTU Formulation 12, upright, 60° C., Day 7): 96.93 Area Percent
Area Percent of HPLC peak ([3]; 10 mg/mL ELSA RTU Formulation 12, upright, 60° C., Day 10): 95.99 Area Percent
Area Percent of HPLC peak ([3]; 10 mg/mL ELSA RTU Formulation 12, upright, 60° C., Day 14): 95.79 Area Percent
Area Percent of HPLC peak ([3]; 10 mg/mL ELSA RTU Formulation 12, upright, 60° C., Initial): 97.63 Area Percent
IC50 antiproliferative effect (MCF7): 0.25 micrograms/ml
IC50 [4]: 74 nM
cross-resistance to DX (MCF7DX): cross-resistant
IC50 [5]: 42 nM
IC50 [6]: 95 nM
